The numbers were not newly measured in patent US20100151037A1, “METHOD FOR THE PREPARATION OF NANOPARTICLES CONTAINING A POORLY WATER-SOLUBLE […] ACTIVE COMPOUND” (priority 2008, published 2010), which cites them from elsewhere.

SMILES strings stand for the structures.

The conditions of this data set: dry powder form.

In the case of `COC1=C(OC)C(=O)C(C/C=C(\C)CC/C=C(\C)CC/C=C(\C)CC/C=C(\C)CC/C=C(\C)CC/C=C(\C)CC/C=C(\C)CC/C=C(\C)CC/C=C(\C)CCC=C(C)C)=C(C)C1=O` [Coenzyme Q10], the bioavailability entry is listed as “as low as three percent”.
